Earlier results as cited in patent US8871750B2, “Use of aromatase inhibitors for endometrial thinning in preparation for surgical procedures on the endometrial cavity and uterus” (Wayne State University, priority 2004, dated 2014).

How the values were obtained:
[1] = postmenopausal breast cancer treatment
endometrium [2] = details: small, randomized study
endometrium [3] = details: in vivo

SMILES	effect on endometrial thickness (endometrium [2])	also measured
CCC1(c2ccc(N)cc2)CCC(=O)NC1=O (centres unmarked) [aminoglutethimide]	–	patients stopping treatment because of side effects (lethargy, rashes, nausea, fever) [1]: 8-15%
CC(=O)O[C@]1(C(C)=O)CC[C@H]2[C@@H]3C=C(Cl)C4=CC(=O)[C@@H]5C[C@@H]5[C@]4(C)[C@H]3CC[C@@]21C [cyproterone acetate]	significant reduction	–
CC(=O)O[C@]1(C(C)=O)CC[C@H]2[C@@H]3C[C@H](C)C4=CC(=O)CC[C@]4(C)[C@H]3CC[C@@]21C [medroxyprogesterone acetate]	no effect	–
CC#C[C@]1(O)CC[C@H]2[C@@H]3CCC4=CC(=O)CCC4=C3[C@@H](c3ccc(N(C)C)cc3)C[C@@]21C [mifepristone]	–	effect on endometrium and menstrual bleeding (endometrium [3]): marked endometrial ECM breakdown and excessive menstrual bleeding
C#C[C@]1(O)CC[C@H]2[C@@H]3CCC4=CC(=O)CC[C@@H]4[C@H]3CC[C@@]21C [norethisterone]	no effect	–
